According to patent publication US9006185B2, “Use of cell-permeable peptide inhibitors of the JNK signal transduction pathway for the treatment of various diseases” (Xigen Inflammation Ltd., priority 2008, dated 2015):
Entries after “also recorded” stand apart in the source; their conditions may differ.

Assays:
Jurkat cells = assay: PMA & ionomycin-induced cytokine production in Jurkat cells; assay type: cell-based
C57BL/6 mice = assay: Bleomycin induced lung fibrosis; assay type: in vivo; settings: for histology: inflammatory cells accumulation, fibrotic areas, loss of lung architecture: day 10
From the text: In order to determine the activity of the exemplary all-D retro-inverso IB(s) peptide XG-102 (SEQ ID NO: 11) in the treatment of Chronic Obstructive Pulmonary Disease (COPD) XG-102 (SEQ ID NO: 11) is used in an animal model of Bleomycin induced acute lung inflammation and fibrosis. The protocol of bleomycin induced inflammation and fibrosis has been described before in the literature. The aim of the Experiment was to investigate the effect of XG-102 (SEQ ID NO: 11) by subcutaneous (s.c.) route on neutrophil recruitment in broncho alveolar lavage (BAL) and lung in bleomycin induced inflammation and fibrosis: • at 1 day after a single bleomycin administration (10 mg/kg) • and at day 10 with the development of fibrosis 1) Method and Experimental Approach • The test compound XG-102 (SEQ ID NO: 11) at two doses and vehicle control were given s.c. with a single intranasal administration of bleomycin and mice were analyzed after 1 and 10 days. The animals used in the model were 10 C57BL/6 mice (8 weeks old) per group. The experimental groups included vehicle, 0.001 mg/kg XG-102 (SEQ ID NO: 11) and 0.1 mg/kg XG-102 (SEQ ID NO: 11), and the treatment consisted of repeated sub-cutaneous administration of XG-102 (SEQ ID NO: 11), prior to bleomycin administration then every 3 days. Acute lung inflammation at 24 h was monitored by BAL lavage, cytology, cell counts, and lung myeloperoxidase activity. The effect of the compound was compared with vehicle controls. Lung fibrosis was assessed histologically using hematoxylin and eosin staining at day 10 after the single dose of bleomycin. […] 1.4) Cell Count and Determination • Total cell count was determined in BAL fluid using a Malassez hemocytometer. […] 1.5) TNF Measurement • TNF level in BALF was determined using ELISA assay kits (Mouse DuoSet, R&D system, Minneapolis, USA) according to manufacturer's instructions. […] 1.6) MPO-Measurement • MPO-levels were measured upon administration of XG-102. […]

[1] = kept at 4-8° C
Description: Unused diluted material could be stored for up to 7 days if kept at 4-8° C. c) Experimental Procedure

For `CC(C)C[C@@H](NC(=O)[C@@H](Cc1ccccc1)NC(=O)[C@H]1CCCN1C(=O)[C@@H](CCC(N)=O)NC(=O)[C@H](NC(=O)[C@H]1CCCN1C(=O)[C@@H](CCCNC(=N)N)NC(=O)[C@@H](CO)NC(=O)[C@@H](CCC(N)=O)NC(=O)[C@H](N)CC(=O)O)C(C)C)C(=O)N[C@H](CC(N)=O)C(=O)N[C@H](CC(C)C)C(=O)N[C@@H](C(=O)N[C@@H](C(=O)N1CCC[C@@H]1C(=O)N[C@H](CCCNC(=N)N)C(=O)N[C@H](CCCCN)C(=O)N1CCC[C@@H]1C(=O)N[C@H](CCCNC(=N)N)C(=O)N1CCC[C@@H]1C(=O)N1CCC[C@@H]1C(=O)N[C@H](CCCNC(=N)N)C(=O)N[C@H](CCCNC(=N)N)C(=O)N[C@H](CCCNC(=N)N)C(=O)N[C@H](CCC(N)=O)C(=O)N[C@H](CCCNC(=N)N)C(=O)N[C@H](CCCNC(=N)N)C(=O)N[C@H](CCCCN)C(=O)N[C@H](CCCCN)C(=O)N[C@H](CCCNC(=N)N)C(=O)NCC(=O)O)[C@H](C)O)[C@H](C)O` [XG-102], the “PMA & ionomycin-induced IFNg, IL-6 and IL-2 production” value (Jurkat cells) was “inhibits cytokine release in both myeloid and lymphoid cell lines”, the “cytotoxicity at effective concentrations” value (murine macrophages) was “non-cytotoxic concentrations” and the “LPS-induced TNFa, IL-6 and Rantes release” value (murine macrophages; murine macrophages) was “reducing LPS-induced TNFa, IL-6 and Rantes release in murine macrophages”. For the same compound, the “lymphocyte recruitment and total cells in bronchioalveolar lavage space” value (C57BL/6 mice; 0.001 mg/kg s.c., 3 times in 10 days) was “reduced significantly the lymphocyte recruitment and the number of total cells recruited”, the “histology: inflammatory cells accumulation, fibrotic areas, loss of lung architecture” value (C57BL/6 mice; high dose 0.1 mg/kg) was “not with the high dose” and the “histology: inflammatory cells accumulation, fibrotic areas, loss of lung architecture” value (C57BL/6 mice; low dose 0.001 mg/kg, 0.001 mg/kg) was “A decrease of these parameters was observed; also recorded: attenuates the Bleomycin-induced fibrosis”. The “storage of unused diluted material” value [1] was “up to 7 days”.
